Assay results taken from patent publication US11378572B2, “Therapeutic agent for immune cell migration-caused disease and method for screening same” (ZYMEDI CO., LTD., priority 2017, dated 2022).

Assays:
PAH model = assay: Monocrotaline PAH model, anti-KRS antibody; type: in vivo, SD rats
Source text: To induce PAH in 7-week-old SD rats (Orient bio), 60 mpk of MCT (monocrotaline) was subcutaneously injected. Then rats were divided into 4 groups (5 animals in each group), and administered with either of 1 mpk of mock human IgG (Thermo Fisher Scientific, negative control), 1 mpk or 10 mpk of anti-KRS antibody (N3 antibody), 25 mpk of sildenafil (positive control) for 3 weeks. All antibodies were intravenously injected twice a week and sildenafil was orally administered everyday.
Three weeks later, rats were anesthetized with isoflurane, and blood flow and pressure were measured using an MPVS cardiovascular pressure and volume system (model name: MPVS Ultra, manufactured by Millar Instruments). Right ventricular systolic pressure (RVESP) and diastolic pressure, left ventricular systolic pressure and diastolic pressure were measured using a dedicated catheter (Mikro-Tip rat pressure catheter, manufactured by Millar Instruments). Cardiac output was measured using a perivascular blood flow probe (Transonic® Flowprobes, manufactured by […]), and experimental techniques were performed in the same manner as described in the literature: Pacher P, Nagayama T, Mukhopadhyay P, Batkai S, Kass D A. Measurement of cardiac function using pressure-volume conductance catheter technique in mice and rats. Nat Protoc 2008, 3(9):1422-34.
Collected lungs were fixed in PFA (paraformaldehyde) according to a conventional procedure, and then embedded in paraffin through water washing, dehydration, and tissue clearing processes. Lung tissue paraffin blocks of rats were cut to a thickness of […] and slides were prepared. Thereafter, staining was performed as follows. First, slides were treated with xylene 3 times for 5 minutes, followed by treatments with 100% ethanol, 95% ethanol, 90% ethanol, 70% ethanol, DW for 2 minutes in this order and washed with PBS for 5 minutes. After treatment with 0.3% H2O2, slides were washed twice with PBS for 5 minutes. After soaking in 0.01M citrate buffer and heating, slides were washed with PBS-T (0.03% tween 20). After 30 minutes blocking at room temperature (2% BSA & 2% goat serum in PBS), tissues were stained with anti-CD68 antibody (1:200, ED1 clone, Abcam) overnight at 4° C. After washing three times with PBS-T for 5 minutes, tissues were treated with polymer-HRP anti-mouse envision kit (DAKO) for 1 hour at 4° C. After washing three times with PBS-T, color was developed by treatment with DAB substrate buffer and DAB chromogen 20. Thus stained tissues were treated with Mayer's hematoxylin (Sigma) for 1 minute, and then treated twice for 2 minutes in the order of 70% ethanol, 90% ethanol, 95% ethanol, and 100% ethanol. Finally, xylene was treated three times for 5 minutes and observed with an optical microscope.

RAW 264.7 cells = assay: Transwell migration assay of monocytes/macrophages; type: cell-based
Protocol: Among several extracellular matrix (ECM), it was examined which ECM promotes the migration and infiltration of immune cells, typically monocytes/macrophages. A transwell migration assay was performed using collagen (Col), fibronectin (FN) and laminin (LN) as extracellular matrices, and detailed methods were as follows. Transwells (Corning, #3421-5 mm) were coated with gelatin (0.5 mg/ml) and RAW 264.7 cells (1×10^5 cells/well) were seeded into the top chambers. Serum free DMEM (500 μl) containing 10 μg/ml of laminin (laminin mixture, Biolamina), fibronectin or collagen, respectively, was placed in the bottom chambers. After 24 hours, cells were fixed with 70% methanol for 30 minutes and stained with 50% hematoxylin for 30 minutes. After removing non-migrating cells from the top of the membrane with a cotton swab, the membrane was taken and mounted on the slide. Migrating cells on the underside of the membrane were observed and quantified under a high magnification microscope.
Effect of laminin subtypes on the immune cell migration and infiltration was evaluated. A transwell migration assay was performed in the same manner as in Example 1 using LN111, LN211, LN221, LN411, LN421, LN511, and LN521 as various laminin subtype proteins (purchased from Biolamina). Specific sequences of laminin subtypes are referred to α4 chain of SEQ ID NO:4, α2 chain of SEQ ID NO: 10, α5 chain of SEQ ID NO: 11, β2 chain of SEQ ID NO:6, β1 chain of SEQ ID NO: 12, γ1 chain of SEQ ID NO: 8. according to the chain forming each laminin subtype,
For each of the transformed macrophages, a transwell migration assay was performed in the same manner as in Example 1 using 1 μg/ml of laminin 421.
Thus identified agents as inhibiting the translocation of KRS to the plasma membrane was added to the LN421-treated macrophages to perform a transwell migration assay. […] Migrating cells on the underside of the membrane were observed and quantified under a high magnification microscope. […]

KRS = target: T1, KRS (Mus musculus, UniProt Q99MN1); assay: KRS level in plasma membrane/cytosol fractions by western blot (KRS translocation to the plasma membrane); type: cell-based; conditions: RAW 264.7 cells, LN421 l g/ml, 0, 12, 24 hour
T1 construct: KRS, which is expressed in monocytes/macrophages and usually present in the cytoplasmic domain, translocates to the plasma membrane by LN421 treatment; endogenous in cells; host or cells: RAW 264.7
T1 sequence (Q99MN1 whole entry, the tested form may be a part): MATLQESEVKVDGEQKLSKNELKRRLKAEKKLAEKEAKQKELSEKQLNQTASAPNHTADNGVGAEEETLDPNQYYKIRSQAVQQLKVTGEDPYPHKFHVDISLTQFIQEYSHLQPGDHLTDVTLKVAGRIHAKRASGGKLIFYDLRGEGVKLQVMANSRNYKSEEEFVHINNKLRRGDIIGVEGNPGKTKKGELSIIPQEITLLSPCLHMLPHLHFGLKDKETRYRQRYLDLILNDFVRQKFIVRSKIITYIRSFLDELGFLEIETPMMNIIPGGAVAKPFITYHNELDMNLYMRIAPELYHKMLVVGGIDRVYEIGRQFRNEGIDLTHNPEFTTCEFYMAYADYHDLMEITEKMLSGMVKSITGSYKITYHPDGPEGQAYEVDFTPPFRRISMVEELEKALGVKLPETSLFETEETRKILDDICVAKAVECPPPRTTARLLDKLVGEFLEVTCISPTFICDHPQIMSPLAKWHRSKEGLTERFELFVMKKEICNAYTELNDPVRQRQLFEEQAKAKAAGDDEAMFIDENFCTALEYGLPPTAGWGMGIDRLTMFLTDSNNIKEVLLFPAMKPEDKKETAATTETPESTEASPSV
Protocol: After dispensing RAW 264.7 cells (2×10^6 cells) in 100 mm dish and incubating for 18 hours, cells were treated with LN421 l g/ml in serum free DMEM media and harvested at 0 hour, 12 hour, 24 hour. Proteins of RAW 264.7 cells were separated into the cytosol and membrane fractions using ProteoExtract Subcellular Proteome Extraction Kit (Calbiotech, cat #539790). Obtained proteins were electrophoresed and transferred to PVDF membrane (Milipore) and blocked with 3% skim milk. KRS was then detected by western blot. Specifically, KRS polyclonal antibody (rabbit, Neomics, Co. Ltd. #NMS-01-0005) was added and reacted for 1 hour. Unbound antibody was removed and the membrane was added and reacted with anti-rabbit secondary antibody (ThermoFisher Scientific, #31460). After reacting with the secondary antibody, films were exposed in the dark room using ECL reagent as a substrate. […]
First, in order to determine whether various KRS inhibitor candidates could exert inhibitory effect on the KRS translocation to the plasma membrane, RAW 264.7 cells (2×10^6 cells) were dispensed in 100 mm dishes and incubated for 18 hours, followed by treatment with laminin 421 1 μg/ml in serum free DMEM, and 100 nM of each of various KRS inhibitor candidates, and cells were further incubated for 12 hours. […] Afterwards, KRS was detected by western blot, and the specific method were as described in Example 3. […]

[1] = MCT + sildenafil 25 mpk oral everyday, 3 weeks (n = 5)

## CCCc1nn(C)c2c(=O)[nH]c(-c3cc(S(=O)(=O)N4CCN(C)CC4)ccc3OCC)nc12 [sildenafil]
PAH model; MCT + sildenafil 25 mpk oral everyday, 3 weeks (n = 4)
  CO: 49.6 ± 17.7 mL/min
PAH model; [1]
  LVEDP: 3.6 ± 2.3 mmHg
  LVESP: 83.2 ± 4.7 mmHg
  RVEDP: 2.6 ± 1.3 mmHg
  RVESP: 48.4 ± 9.6 mmHg
PAH model; MCT + sildenafil (n = 5)
  body weight, absolute change: 104.1 ± 26.4 g
  body weight, relative change: 49.8 ± 10.5%
PAH model; number of animals with finding
  findings of D-shaped left ventricle (echocardiography): three mice

## LN421: laminin subtype α4β2γ1, purchased from Biolamina [reference compound]
RAW 264.7 cells; LN111, LN211, LN221, LN411, LN421, LN511, LN521 compared
  migration of monocytes/macrophages among laminin subtypes: specifically reacted
KRS
  level of KRS detection in the plasma membrane fractions: increased

## laminin [reference compound]
RAW 264.7 cells; 10 μg/ml in bottom chamber, 24 hours, versus collagen, fibronectin
  migration of monocytes/macrophages among extracellular matrices: most strongly promoted
